# Laboratory results reported in the supplement of paper PMC6045584.
# Tests used:
# Test in all cases: area under dose-response curve of surviving fraction (unscaled, Aref=0) (surviving fraction x log10(nM)); higher = more resistant
# Conditions in all cases: exposure time: 5 days; dose range 0.5-1000 nM
# [1] = compound: C=CCNC1=C2C[C@@H](C)C[C@H](OC)[C@H](O)[C@@H](C)/C=C(\C)[C@H](OC(N)=O)[C@@H](OC)/C=C\C=C(/C)C(=O)NC(=CC1=O)C2=O [17-AAG]
# Procedure, shortened: (§1)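 Surviving fractions were fitted by 3-parameter logistic regression in the drc R package to give dose-response survival curves. They came from tumour cell lines treated for five days with eight inhibitor concentrations from 0.5 to 1000 nM and read by CellTiter-Glo luminescence against DMSO-only wells. The area under the curve is the unscaled activity area. It was calculated over log10 dose with Aref = 0.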
# [2] = compound: CCN(CC)CCCCNc1ncc2cc(-c3cc(OC)cc(OC)c3)c(NC(=O)NC(C)(C)C)nc2n1
# Procedure, shortened: as §1
# [3] = compound: CC[C@@H](C(=O)[C@@H](C)[C@@H](O)[C@H](C)[C@@H]1O[C@@H]([C@@H](CC)C(=O)O)CC[C@@H]1C)[C@H]1O[C@]2(C=C[C@@H](O)[C@]3(CC[C@@](C)([C@H]4CC[C@](O)(CC)[C@H](C)O4)O3)O2)[C@H](C)C[C@@H]1C [SALINOMYCIN]
# Procedure, shortened: as §1
# [4] = compound: CN(C)CC[C@H](CSc1ccccc1)Nc1ccc(S(=O)(=O)NC(=O)c2ccc(N3CCN(Cc4ccccc4-c4ccc(Cl)cc4)CC3)cc2)cc1[N+](=O)[O-] [ABT-737]
# Procedure, shortened: as §1
# [5] = compound: CN1CC[C@H](c2c(O)cc(O)c3c(=O)cc(-c4ccccc4Cl)oc23)[C@H](O)C1 [FLAVOPIRIDOL]
# Procedure, shortened: as §1
# [6] = compound: COc1cc2c(cc1O)CC[C@@H]1[C@@H]2CC[C@]2(C)[C@@H](O)CC[C@@H]12 [2-METHOXYESTRADIOL]
# Procedure, shortened: as §1
# [7] = compound: COc1ccc(C2=N[C@@H](c3ccc(Cl)cc3)[C@@H](c3ccc(Cl)cc3)N2C(=O)N2CCNC(=O)C2)c(OC(C)C)c1 [NUTLIN3]
# Procedure, shortened: as §1
# [8] = compound: COc1cccc2c1C(=O)c1c(O)c3c(c(O)c1C2=O)C[C@@](O)(C(=O)CO)C[C@@H]3O[C@H]1C[C@H](N)[C@H](O)[C@H](C)O1 [DOXORUBICIN]
# Procedure, shortened: as §1
# [9] = compound: CS(=O)(=O)CCNCc1ccc(-c2ccc3ncnc(Nc4ccc(OCc5cccc(F)c5)c(Cl)c4)c3c2)o1 [LAPATINIB]
# Procedure, shortened: as §1
# [10] = compound: CS(=O)(=O)c1ccc(C(=O)Nc2ccc(Cl)c(-c3ccccn3)c2)c(Cl)c1 [VISMODEGIB]
# Procedure, shortened: as §1
# [11] = compound: Nc1ncn([C@H]2C[C@H](O)[C@@H](CO)O2)c(=O)n1 [DECITABINE]
# Procedure, shortened: as §1
# [12] = compound: O=c1[nH]cc(F)c(=O)[nH]1 [FLUOROURACIL]
# Procedure, shortened: as §1
# [13] = compound: Oc1ccc(/C=C/c2cc(O)cc(O)c2)cc1 [RESVERATROL]
# Procedure, shortened: as §1
Test System,area under dose-response curve [1],area under dose-response curve [2],area under dose-response curve [3],area under dose-response curve [4],area under dose-response curve [5],area under dose-response curve [6],area under dose-response curve [7],area under dose-response curve [8],area under dose-response curve [9],area under dose-response curve [10],area under dose-response curve [11],area under dose-response curve [12],area under dose-response curve [13]
MDAMB134 BREAST,1.91,2.92,3.52,3.13,2.96,2.73,3.16,2.35,3.79,2.56,3.67,2.74,3.44
MHM BONE,2.77,3.05,3.24,3.61,2.77,3.26,3.28,2.66,3.38,3.42,3.4,3.46,3.41
HSSYII SYNOVIAL,2.27,2.02,2.22,2.95,2.06,2.57,2.98,0.844,3.2,2.83,2.67,3.07,3.27
SCC90 HEADNECK,2.31,2.96,2.84,3.56,2.25,2.68,3.5,2.36,2.81,2.93,3.6,3.17,–
HOSMNG BONE,2.42,3.33,3.21,3.05,2.35,3.07,3.48,2.25,3.02,3.19,3.51,3.41,2.77
T47D BREAST,2.74,3.36,3.3,3.61,2.51,3.15,3.35,2.13,3.39,3.3,3.53,3.16,3.51
MFM223 BREAST,1.07,2,2.35,4.23,2.3,3.08,3.57,2,3.48,3.12,3.65,2.92,3.94
HELA CERVIX,2.37,3.33,3.17,3.64,2.54,3.11,3.38,1.69,3.7,3.49,3.41,3.55,3.64
MDAMB231 BREAST,2.14,3.28,2.97,3.28,2.26,3,3.31,2.1,3.27,3.04,3.17,3.13,3.26
PCI30 HEADNECK,1.97,3.28,2.49,3.56,2.11,2.94,3.44,2.03,3.52,3.04,3.24,3.3,3.54
SCC003 HEADNECK,2.38,3.36,2.91,3.76,2.22,–,3.48,2.03,3.11,3.24,2.94,3.08,3.64
A549 LUNG,1.64,3.22,3.11,3.54,2.34,3.25,3.26,2.25,3.47,3.34,3.29,3.27,3.51
MDAMB436 BREAST,1.77,2.96,1.74,3.13,2.13,3.01,2.99,2.04,3.11,2.81,3.1,2.81,3.36
H23 LUNG,1.66,3.28,–,3.5,2.33,3.11,3.42,1.79,2.77,3.43,2.74,3.28,3.42
CAL72 BONE,2.63,2.46,3.12,3.52,2.13,3.18,3.61,1.9,3.63,3.17,3.26,3.25,3.49
COLO320DM LARGE INTESTINE,2.98,3.53,2.89,3.69,2.06,2.88,4.13,3.07,3.66,3.45,3.27,2.87,3.54
HCC1395 BREAST,3.19,2.85,–,3.99,–,3.84,3.79,–,3.36,2.48,4.02,3.24,3.66
MDAMB361 BREAST,1.34,2.94,2.72,2.84,2.59,2.61,2.83,2.58,2.68,2.31,3.03,2.28,2.99

Test System,area under dose-response curve [1],area under dose-response curve [2],area under dose-response curve [3],area under dose-response curve [4],area under dose-response curve [5],area under dose-response curve [6],area under dose-response curve [7],area under dose-response curve [8],area under dose-response curve [9],area under dose-response curve [10],area under dose-response curve [11],area under dose-response curve [12],area under dose-response curve [13]
CAL120 BREAST,1.76,2.73,2.03,3.33,2.14,3,3.14,1.87,3.34,3.26,3.03,3.16,3.3
DU4475 BREAST,1.26,2.52,2.43,2.54,1.69,2.52,3.2,0.979,3.33,3.21,1.99,3.34,3.25
CASKI CERVIX,1.32,3.09,2.37,3.24,1.76,3.06,3.23,0.836,2.48,3.06,2.1,3.05,3.22
HCC1806 BREAST,0.894,3.58,2.77,3.72,2.06,3.46,3.55,1.3,3.15,3.23,1.27,3.09,3.7
MG63 BONE,2.62,2.88,2.67,3.59,2.39,3.27,3.4,1.9,3.5,3.19,1.88,3.26,3.52
CAL51 BREAST,1.92,2.86,3.01,3.4,1.92,2.99,3.17,1.48,3.37,3.09,2.92,3.05,3.35
MCF7 BREAST,1.92,2.89,2.78,3.27,2.18,2.89,2.87,1.99,3.11,2.99,2.83,2.99,3.21
HU09 BONE,1.08,3.06,2.91,3.04,2.06,3.01,3.4,1.38,3.23,3.11,3.33,3.06,3.57
SYO1 SYNOVIAL,1.74,2.51,2.04,3,1.9,2.75,2.9,0.851,3.2,3,2.46,2.82,3.23
SKBR3 BREAST,1.25,3.1,2.84,3.52,2.07,3.2,2.96,1.72,2.38,3.07,3.29,2.95,3.5
JIMT1 BREAST,1.58,3.25,2.96,3.44,2.19,3.13,3.38,2.21,3.27,3,2.86,3.03,3.4
HCC1954 BREAST,0.46,3.28,2.46,3.03,1.99,2.85,3.64,1.78,2.76,2.26,4.03,2.96,3.7
KPD BONE,1.75,3.24,2.62,3.2,2.05,3.16,3.29,1.78,3.44,3.27,2.08,3.27,3.44
C33A CERVIX,–,2.88,2.96,3.38,2.27,2.91,3.13,1.46,2.92,3.15,3.03,3.66,3.17
SUM149 BREAST,1.29,–,2.62,3.39,2.09,2.9,3.63,1.11,2.56,2.98,2.01,2.9,3.39
HOS BONE,2.31,–,2.44,3.45,2.29,3.21,3.43,1.25,3.45,3.34,3.22,3.19,3.43
LM7 BONE,1.46,3.22,3.08,3.48,2.3,3.02,3.39,1.78,3.39,3.28,3.06,2.96,3.63
